This note sets out measurements from patent US20070093433A1, “Aminoglycoside antibiotics for use as vap-1/ssao inhibitors” (priority 2003, published 2007).

The target of series [1] is T1, VAP-1 (Homo sapiens, UniProt Q16853).
T1 sequence (Q16853 1-763): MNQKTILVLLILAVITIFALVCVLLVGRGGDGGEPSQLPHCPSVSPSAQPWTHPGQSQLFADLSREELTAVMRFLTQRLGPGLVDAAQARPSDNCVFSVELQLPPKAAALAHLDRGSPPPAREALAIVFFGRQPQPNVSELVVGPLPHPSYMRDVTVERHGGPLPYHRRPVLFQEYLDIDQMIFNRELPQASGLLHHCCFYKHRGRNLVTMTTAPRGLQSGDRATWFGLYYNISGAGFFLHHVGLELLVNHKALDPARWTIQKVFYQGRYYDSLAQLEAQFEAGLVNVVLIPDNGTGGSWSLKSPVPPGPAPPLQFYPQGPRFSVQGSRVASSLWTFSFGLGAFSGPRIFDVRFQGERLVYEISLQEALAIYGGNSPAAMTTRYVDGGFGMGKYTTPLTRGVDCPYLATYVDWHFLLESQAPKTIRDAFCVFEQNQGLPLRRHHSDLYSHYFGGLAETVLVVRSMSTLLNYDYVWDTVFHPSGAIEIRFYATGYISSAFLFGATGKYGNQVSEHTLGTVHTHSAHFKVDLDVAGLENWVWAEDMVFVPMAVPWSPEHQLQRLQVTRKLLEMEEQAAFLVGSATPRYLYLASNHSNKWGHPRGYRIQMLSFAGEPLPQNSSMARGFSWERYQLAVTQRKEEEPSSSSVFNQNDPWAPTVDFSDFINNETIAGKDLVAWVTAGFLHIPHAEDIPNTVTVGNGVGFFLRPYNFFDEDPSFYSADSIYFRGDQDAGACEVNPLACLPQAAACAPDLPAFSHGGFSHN
Kind of series: SSAO (amine oxidase) activity of VAP-1 transfected cells, radiochemical [14C]-benzylamine and fluorometric Amplex Red H2O2 assays. The series is classed as cell-based. More on the design: expressed in transfected cells; host or cells: Ax endothelial cells or CHO cells. The following applies: for % of inhibition: VAP-1 transfected Ax endothelial or CHO cells, benzylamine substrate, 30 min pre-incubation at 37° C., agents at 1 mg/ml and 100 μg/ml (concentration not given), representative of 2 to 5 experiments; for effect on enzymatic (SSAO) activity of VAP-1, in words: VAP-1 transfected cells, summary of Table I. As for the experimental part: Amine oxidase activity was assayed radiochemically using [7-^14C]-benzylamine hydrochloride (spec. act. 57 mCi/mmol, Amersham) as a substrate. In brief, the cells (VAP-1 transfected Ax endothelial cells or VAP-1 transfected CHO cells and their mock transfected controls) were seeded onto gelatin-coated 24-well tissue culture plates and allowed to reach confluence. Prior to experiments, the cells were rinsed twice with RPMI 1640 and pre-incubated 30 min at 37° C. in 0.3 ml RPMI-1640 medium containing amikacin, tobramycin, gentamicin, streptomicin or geneticin (1 mg/ml). The reaction was initiated by addition of 6 μmol/L [^14C]-benzylamine (40000 dpm) and terminated after 1 hour by citric acid. The aldehydes were extracted into toluene containing diphenyloxazole and the formation of [^14C]-labelled benzaldehyde was quantified by scintillation counting.
SSAO activity of the cells was also independently measured using Amplex Red reagent (10-acetyl-3,7-dihydroxyphenoxazine; Molecular Probes Europe BV), a highly sensitive and stable probe for H2O2. Cultured cells (VAP-1 transfected Ax endothelial cells or VAP-1 transfected CHO cells and their mock transfected controls) were rinsed with Krebs Ringer phosphate glucose (KRPG; 145 mM NaCl, 5.7 mM sodium phosphate, 4.86 mM KCl, 0.54 mM CaCl2, 1.22 mM MgSO4, 5.5 mM glucose, pH 7.35) and pre-incubated 30 min at 37° C. in 200 μl KRPG containing amikacin, tobramycin, gentamicin, netilmicin, streptomycin, geneticin, glucosamine, mannosamine, galactosamine, or puromycin (1 mg/ml and 100 μg/ml). Catalytic reaction was initiated by addition of benzylamine as substrates and H2O2-detecting mixture containing horseradish peroxidase (final concentration 0.8 U/ml) and Amplex Red reagent (60 μM). The plates were incubated for 1-2 hours at 37° C. in the final volume of 250 μl, the bathing medium was clarified by centrifugation and placed in aliquots (200 μl) into white non-phosphorescent microplates (Cliniplate). Fluorescence intensity of the samples was measured (excitation, 545 nm; emission, 590 nm; Tecan ULTRA fluoropolarometer) and H2O2 concentration was calculated from calibration curves generated by serial dilutions of either standard H2O2 or resorufin, the product of the Amplex Red reaction (Molecular Probes).

In series [2] the target is T1, VAP-1. Kind of series: Tobramycin serum concentration after intravenous injection in VAP KO+TG versus VAP KO mice (fluorescence polarization immunoassay). In kind it is in vivo, mouse. More on the design: expressed in transfected cells; host or cells: mTIEhVAP-1 transgenic / mouse VAP-1 knockout mice (VAP KO+TG), expression on vasculature. The following applies: 3 mg/kg intravenously. An excerpt:
The mTIEhVAP-1 line E35 mice expressing human VAP-1 on vasculature were crossed to VAP-1 knockout mice that were previously created by using conventional gene targeting techniques to replace the mouse VAP-1 gene with a nonfunctional mutant-allele. The mTIEhVAP-1 transgene, mouse VAP-1 mutant-allele and endogenous mouse VAP-1 allele were all identified by PCR screening of purified genomic DNA with specific primers and verified immunohistochemically with human and mouse VAP-1 antibodies.
These mice and VAP KO mice as controls received intravenously tobramycin 3 mg/kg and tobramycin concentration from serum was measured after 30 min, 1, 2 and 3 hours after injections using fluorescence polarization immunoassay.
(In general: In fluorescence polarisation assays a small probe gives low polarisation when free and higher when bound to something large.)

As for `NCC[C@H](O)C(=O)N[C@@H]1C[C@H](N)[C@@H](O[C@H]2O[C@H](CN)[C@@H](O)[C@H](O)[C@H]2O)[C@H](O)[C@H]1O[C@H]1O[C@H](CO)[C@@H](O)[C@H](N)[C@H]1O` [Amikacin, amikacin], in series [1], the “% of inhibition” value is 84% and the “effect on enzymatic (SSAO) activity of VAP-1, in words” value (“effect on enzymatic (SSAO) activity” below) is given as “diminished to variable extent”.

For the compound `N[C@H]1C(O)O[C@H](CO)[C@H](O)[C@@H]1O` (some centres unmarked) [Galactosamine, galactosamine], in series [1], the “% of inhibition” value was found to be 12% and the “effect on enzymatic (SSAO) activity” value is on record as “did not significantly inhibit”.

For the compound `CN[C@@H]1[C@@H](O)[C@@H](O[C@@H]2[C@@H](O)[C@H](O[C@H]3O[C@H]([C@@H](C)O)[C@@H](O)[C@H](O)[C@H]3N)[C@@H](N)C[C@H]2N)OC[C@]1(C)O` [Geneticin, geneticin], in series [1], the “% of inhibition” value came out at 46%.

For the compound `N[C@H]1C(O)O[C@H](CO)[C@@H](O)[C@@H]1O` (some centres unmarked) [Glucosamine, glucosamine], in series [1], the “% of inhibition” value worked out at 0% and the “effect on enzymatic (SSAO) activity” value is listed as “did not significantly inhibit”.

As for `N[C@@H]1C(O)O[C@H](CO)[C@@H](O)[C@@H]1O` (some centres unmarked) [Mannosamine, mannosamine], in series [1], the “% of inhibition” value was found to be 20% and the “effect on enzymatic (SSAO) activity” value was “did not significantly inhibit”.

Consider `CCN[C@@H]1C[C@H](N)[C@@H](O[C@H]2OC(CN)=CC[C@H]2N)[C@H](O)[C@H]1O[C@H]1OC[C@](C)(O)[C@H](NC)[C@H]1O` [Netilmicin, netilmicin], for which, in series [1], the “% of inhibition” value is 45% and the “effect on enzymatic (SSAO) activity” value is given as “diminished to variable extent”.

As to `COc1ccc(C[C@H](N)C(=O)N[C@H]2[C@@H](O)[C@H](n3cnc4c(N(C)C)ncnc43)O[C@@H]2CO)cc1` [Puromycin, puromycin], in series [1], the “% of inhibition” value was found to be 59% and the “effect on enzymatic (SSAO) activity” value is reported as “diminished to variable extent”.

`[H]/N=C(/N)N[C@H]1[C@H](O)[C@@H](O)[C@H](O[C@@H]2O[C@@H](C)[C@](O)(C=O)[C@H]2O[C@@H]2O[C@@H](CO)[C@H](O)[C@@H](O)[C@@H]2NC)[C@@H](N/C(N)=N\[H])[C@@H]1O` [Streptomicin, streptomycin]: the “% of inhibition” value in series [1] is 5%.

For `NC[C@H]1O[C@H](O[C@H]2[C@H](O)[C@@H](O[C@H]3O[C@H](CO)[C@@H](O)[C@H](N)[C@H]3O)[C@H](N)C[C@@H]2N)[C@H](N)C[C@@H]1O` [Tobramycin, tobramycin], in series [1], the “% of inhibition” value was 78% and the “effect on enzymatic (SSAO) activity” value is “diminished to variable extent”. The “tobramycin concentration in serum, VAP KO+TG mice compared with VAP KO mice” value in series [2] (at 2 and 3 hours, mice expressing human VAP-1 vs VAP KO mice) is “lower concentrations”. The “difference in serum tobramycin concentration between VAP KO mice and VAP KO+TG mice” value in series [2] (at 3 hours) is given as “two fold”.

Turning to gentamicin, in series [1], the “% of inhibition” value amounted to 46% and the “effect on enzymatic (SSAO) activity” value is “diminished to variable extent”.
